Source: ChEMBL document CHEMBL1131161 (J Med Chem, 1998)

What was measured:
CV-1 [1] = assay: Inhibitory concentration in CV-1 cell; assay type: functional, cell-based, Cercopithecidae; details: Chlorocebus aethiops
Progesterone receptor [2] = biological target: T1, Progesterone receptor (Homo sapiens, UniProt P06401); assay: Effective concentration (EC50) against human progesterone receptor expressed in CV-1 cell; assay type: functional, cell-based
T1 sequence (P06401 whole entry): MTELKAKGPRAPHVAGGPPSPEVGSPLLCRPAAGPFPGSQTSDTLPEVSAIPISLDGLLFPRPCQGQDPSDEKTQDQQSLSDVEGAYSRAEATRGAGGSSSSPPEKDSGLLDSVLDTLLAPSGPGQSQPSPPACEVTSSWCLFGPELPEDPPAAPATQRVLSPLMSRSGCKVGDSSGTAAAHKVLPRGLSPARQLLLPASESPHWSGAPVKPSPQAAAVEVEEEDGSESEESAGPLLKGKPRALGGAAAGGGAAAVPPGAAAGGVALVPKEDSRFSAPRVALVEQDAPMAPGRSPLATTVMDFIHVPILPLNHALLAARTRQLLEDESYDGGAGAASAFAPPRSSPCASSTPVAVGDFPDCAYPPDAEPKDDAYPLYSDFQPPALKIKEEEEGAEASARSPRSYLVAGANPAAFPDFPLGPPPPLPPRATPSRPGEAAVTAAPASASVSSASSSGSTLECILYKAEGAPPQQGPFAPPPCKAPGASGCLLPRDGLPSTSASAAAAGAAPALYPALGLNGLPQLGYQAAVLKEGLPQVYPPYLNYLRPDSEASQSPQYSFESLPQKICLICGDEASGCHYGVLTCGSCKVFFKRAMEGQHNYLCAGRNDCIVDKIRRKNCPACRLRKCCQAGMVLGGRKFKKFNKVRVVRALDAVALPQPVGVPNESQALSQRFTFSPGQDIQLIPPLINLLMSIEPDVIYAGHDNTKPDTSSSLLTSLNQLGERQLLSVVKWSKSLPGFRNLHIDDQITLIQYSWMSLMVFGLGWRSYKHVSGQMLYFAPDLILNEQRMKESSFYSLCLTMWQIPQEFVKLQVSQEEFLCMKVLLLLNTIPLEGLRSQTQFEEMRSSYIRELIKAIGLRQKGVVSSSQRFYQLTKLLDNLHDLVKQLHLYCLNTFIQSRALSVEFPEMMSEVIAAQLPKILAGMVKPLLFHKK

[3] = biological target: T2, Mineralocorticoid receptor (Homo sapiens, UniProt P08235); assay: Inhibitory activity (IC50) against human mineralocorticoid receptor expressed in CV-1 cells; assay type: functional, cell-based
T2 sequence (P08235 whole entry): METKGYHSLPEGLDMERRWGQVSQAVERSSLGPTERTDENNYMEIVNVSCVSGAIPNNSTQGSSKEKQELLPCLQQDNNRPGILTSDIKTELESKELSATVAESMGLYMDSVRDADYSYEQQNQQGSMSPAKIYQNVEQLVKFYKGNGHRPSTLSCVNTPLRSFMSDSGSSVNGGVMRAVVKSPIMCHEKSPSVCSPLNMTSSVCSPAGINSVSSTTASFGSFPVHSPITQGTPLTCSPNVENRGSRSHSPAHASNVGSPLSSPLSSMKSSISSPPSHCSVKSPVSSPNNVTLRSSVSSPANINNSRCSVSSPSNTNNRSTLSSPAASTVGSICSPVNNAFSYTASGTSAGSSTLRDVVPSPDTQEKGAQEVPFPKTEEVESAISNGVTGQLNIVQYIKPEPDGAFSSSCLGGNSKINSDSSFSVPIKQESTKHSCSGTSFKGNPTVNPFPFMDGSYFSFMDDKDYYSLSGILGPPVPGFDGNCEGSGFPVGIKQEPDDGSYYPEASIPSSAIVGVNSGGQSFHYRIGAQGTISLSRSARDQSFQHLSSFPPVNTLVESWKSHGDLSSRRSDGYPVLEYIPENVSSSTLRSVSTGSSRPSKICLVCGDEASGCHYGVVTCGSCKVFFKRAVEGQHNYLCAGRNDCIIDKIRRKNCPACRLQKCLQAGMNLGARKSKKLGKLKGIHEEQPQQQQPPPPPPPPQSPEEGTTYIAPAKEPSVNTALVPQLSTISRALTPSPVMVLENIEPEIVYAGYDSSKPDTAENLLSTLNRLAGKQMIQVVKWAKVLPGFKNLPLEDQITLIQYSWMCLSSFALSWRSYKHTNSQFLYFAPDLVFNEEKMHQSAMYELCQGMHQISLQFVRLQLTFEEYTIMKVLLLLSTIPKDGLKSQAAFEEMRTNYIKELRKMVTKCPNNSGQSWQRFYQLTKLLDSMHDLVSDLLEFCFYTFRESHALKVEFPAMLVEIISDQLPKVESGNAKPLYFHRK

Progesterone receptor [4] = biological target: T1, Progesterone receptor; assay: Binding affinity against human progesterone receptor
Androgen receptor [5] = biological target: T3, Androgen receptor (Homo sapiens, UniProt P10275)
T3 sequence (P10275 whole entry): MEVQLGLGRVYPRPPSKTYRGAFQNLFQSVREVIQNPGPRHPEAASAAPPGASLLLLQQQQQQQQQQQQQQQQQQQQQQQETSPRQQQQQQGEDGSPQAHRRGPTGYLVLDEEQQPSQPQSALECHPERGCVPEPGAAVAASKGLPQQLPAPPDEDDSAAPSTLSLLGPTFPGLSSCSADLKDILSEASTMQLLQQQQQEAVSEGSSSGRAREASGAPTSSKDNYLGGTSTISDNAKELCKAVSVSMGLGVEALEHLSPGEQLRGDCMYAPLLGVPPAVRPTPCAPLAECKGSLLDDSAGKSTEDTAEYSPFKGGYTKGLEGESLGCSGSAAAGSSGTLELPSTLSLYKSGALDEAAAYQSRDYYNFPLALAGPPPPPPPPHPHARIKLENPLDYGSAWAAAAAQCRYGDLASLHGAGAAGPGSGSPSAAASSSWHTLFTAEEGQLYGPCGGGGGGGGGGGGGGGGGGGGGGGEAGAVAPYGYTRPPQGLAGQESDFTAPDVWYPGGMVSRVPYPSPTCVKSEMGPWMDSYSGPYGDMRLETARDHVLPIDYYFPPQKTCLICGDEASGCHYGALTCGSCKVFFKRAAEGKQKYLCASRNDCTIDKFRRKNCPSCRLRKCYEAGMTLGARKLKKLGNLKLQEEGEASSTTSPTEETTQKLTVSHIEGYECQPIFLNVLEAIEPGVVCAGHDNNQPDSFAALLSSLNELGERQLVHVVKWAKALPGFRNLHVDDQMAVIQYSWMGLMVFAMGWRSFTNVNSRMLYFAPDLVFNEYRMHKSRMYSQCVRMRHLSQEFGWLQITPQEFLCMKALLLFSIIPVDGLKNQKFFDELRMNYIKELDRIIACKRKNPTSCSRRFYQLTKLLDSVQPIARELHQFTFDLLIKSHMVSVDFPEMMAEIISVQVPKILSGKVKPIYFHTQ
Description: Binding affinity against human androgen receptor

Androgen receptor [6] = biological target: T3, Androgen receptor; remark: listed apart in the source
Description: Inhibitory activity (IC50) against human androgen receptor expressed in CV-1 cells

Glucocorticoid receptor [7] = biological target: T4, Glucocorticoid receptor (Homo sapiens, UniProt P04150)
T4 sequence (P04150 whole entry): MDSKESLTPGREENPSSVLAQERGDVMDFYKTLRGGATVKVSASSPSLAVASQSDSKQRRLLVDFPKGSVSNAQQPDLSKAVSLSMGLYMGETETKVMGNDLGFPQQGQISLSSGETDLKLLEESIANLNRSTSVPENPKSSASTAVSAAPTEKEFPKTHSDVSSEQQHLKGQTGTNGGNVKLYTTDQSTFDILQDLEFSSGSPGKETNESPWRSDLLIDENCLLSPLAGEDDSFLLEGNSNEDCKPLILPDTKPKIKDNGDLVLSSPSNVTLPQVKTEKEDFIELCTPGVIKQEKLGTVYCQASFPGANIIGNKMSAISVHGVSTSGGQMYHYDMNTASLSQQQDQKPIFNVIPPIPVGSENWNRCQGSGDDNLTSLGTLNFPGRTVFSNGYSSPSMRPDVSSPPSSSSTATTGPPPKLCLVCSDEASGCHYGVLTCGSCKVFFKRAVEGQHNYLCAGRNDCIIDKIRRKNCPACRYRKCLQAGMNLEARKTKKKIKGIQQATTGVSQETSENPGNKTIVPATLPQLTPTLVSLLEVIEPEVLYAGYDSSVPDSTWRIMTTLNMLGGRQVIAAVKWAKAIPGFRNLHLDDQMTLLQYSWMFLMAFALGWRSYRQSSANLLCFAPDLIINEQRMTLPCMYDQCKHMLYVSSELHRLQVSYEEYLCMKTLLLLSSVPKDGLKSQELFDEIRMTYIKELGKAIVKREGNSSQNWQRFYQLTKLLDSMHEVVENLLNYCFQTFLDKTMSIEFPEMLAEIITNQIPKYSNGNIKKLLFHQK
Description: Inhibitory activity (IC50) against human glucocorticoid receptor expressed in CV-1 cells

Estrogen receptor = Estrogen receptor (Homo sapiens, UniProt Q92731+P03372); details: cv-1
Description: IC50 determined against human estrogen receptor in CV-1 cells

Glucocorticoid receptor [8] = biological target: T4, Glucocorticoid receptor; assay: biochemical
Description: Binding affinity against human glucocorticoid receptor expressed in SF-12 cells

CV-1 [9] = assay: Inhibitory concentration was determined from full dose response curves ranging from 10 E -12 to 10 E -5M in CV-1 cell; assay type: functional, Cercopithecidae

SMILES	IC50 (CV-1 [1])	EC50 (Progesterone receptor [2])	Ki (Progesterone receptor [4])	further results
CC1=CC(C)(C)Nc2ccc3c(c21)C(c1ccccc1)Oc1ccccc1-3 (stereo not drawn)	290 nM	–	–	–
CC1=CC(C)(C)Nc2ccc3c(c21)/C(=C/c1ccccc1)Oc1ccccc1-3	> 10000 nM	24.4 nM	4.9 nM	IC50 [3]: 3 µM; Ki (Androgen receptor [5]): 2660 nM; IC50 (Androgen receptor [6]): 650 nM; IC50 (Glucocorticoid receptor [7]): 737 nM; IC50 (Estrogen receptor): > 10 µM; Ki (Glucocorticoid receptor [8]): 299 nM
CC1=CC(C)(C)Nc2ccc3c(c21)/C(=C/c1cccc(F)c1F)Oc1ccccc1-3	531 nM	26.3 nM	24.3 nM	–
CC1=CC(C)(C)Nc2ccc3c(c21)/C(=C/c1ccc(F)cc1)Oc1ccccc1-3	> 10000 nM	59.5 nM	3.5 nM	–
CC1=CC(C)(C)Nc2ccc3c(c21)/C(=C/c1ccc(Cl)cc1)Oc1ccccc1-3	880 nM	139 nM	60 nM	–
CC1=CC(C)(C)Nc2ccc3c(c21)/C(=C/c1ccc(Br)cc1)Oc1ccccc1-3	> 10000 nM	31.5 nM	8.7 nM	–
CC1=CC(C)(C)Nc2ccc3c(c21)/C(=C/c1cccc(Br)c1)Oc1ccccc1-3	> 10000 nM	37 nM	22.1 nM	–
CC1=CC(C)(C)Nc2ccc3c(c21)C(Cc1ccccc1)Oc1ccccc1-3 (stereo not drawn)	270 nM	16.8 nM	2.1 nM	–
CC1=CC(C)(C)Nc2ccc3c(c21)/C(=C/c1ccc(C)cc1)Oc1ccccc1-3	590 nM	> 10000 nM	70 nM	–
COc1cccc(/C=C2\Oc3ccccc3-c3ccc4c(c32)C(C)=CC(C)(C)N4)c1	425 nM	> 10000 nM	53.3 nM	–
CC1=CC(C)(C)Nc2ccc3c(c21)/C(=C/c1cccc(F)c1)Oc1ccccc1-3	> 10000 nM	7.6 nM	0.83 nM	IC50 [3]: > 10 µM; Ki (Androgen receptor [5]): 798 nM; IC50 (Androgen receptor [6]): 795 nM; IC50 (Glucocorticoid receptor [7]): 458 nM; IC50 (Estrogen receptor): > 10 µM; Ki (Glucocorticoid receptor [8]): 180 nM
CC1=CC(C)(C)Nc2ccc3c(c21)/C(=C/c1ccccc1Br)Oc1ccccc1-3	> 10000 nM	57.8 nM	5.5 nM	–
CC1=CC(C)(C)Nc2ccc3c(c21)/C(=C/c1cccc(Cl)c1)Oc1ccccc1-3	> 10000 nM	117 nM	18.7 nM	–
CC1=CC(C)(C)Nc2ccc3c(c21)/C(=C/c1cc(F)cc(F)c1)Oc1ccccc1-3	> 10000 nM	47.7 nM	12.6 nM	–
CC1=CC(C)(C)Nc2ccc3c(c21)/C(=C/c1cccc(C)c1)Oc1ccccc1-3	> 10000 nM	75 nM	39.7 nM	–
CC1=CC(C)(C)Nc2ccc3c(c21)/C(=C/c1ccccc1Cl)Oc1ccccc1-3	> 10000 nM	57.8 nM	1.3 nM	–
CC1=CC(C)(C)Nc2ccc3c(c21)/C(=C/c1c(F)cccc1F)Oc1ccccc1-3	220 nM	32 nM	31.3 nM	–
CC1=CC(C)(C)Nc2ccc3c(c21)/C(=C/c1ccc(F)cc1F)Oc1ccccc1-3	550 nM	22 nM	–	–
CC1=CC(C)(C)Nc2ccc3c(c21)/C(=C/c1ccccc1F)Oc1ccccc1-3	> 10000 nM	29 nM	5.6 nM	–
CC(=O)O[C@]1(C(C)=O)CC[C@H]2[C@@H]3C[C@H](C)C4=CC(=O)CC[C@]4(C)[C@H]3CC[C@@]21C [MEDROXYPROGESTERONE ACETATE]	–	–	–	IC50 (CV-1 [9]): >10 µM; IC50 (Glucocorticoid receptor [7]): 10 nM
